The text below walks through data of ChEMBL document CHEMBL1201862, “PubChem BioAssay data set” (2004).

Among the test systems are MDA-N; SR; IGROV-1; NCI-H226; MDA-MB-435; PC-3; OVCAR-4; HCT-15; U-251; M14; TK-10; CAKI-1; OVCAR-3; HOP-92; 786-0; SF-295; HT-29; Malme-3M; HCT-116; BT-549.
Holding throughout (experiment): NCI-60 cell line screen, 48 h

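Compound exposure: 48 hours, 5 concentrations, 96-well plates. The concentration for 50% growth inhibition is given as GI50.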 Calls of active or inactive are those of the source. Cut-off read from the data, not from the text of the source: active = GI50 up to about 1.1 µM and inactive = higher. Bounds are passed on as bounds.

For the compound `COc1ccc(OC)c2c1C(=O)C(Cl)=C(Cl)C2=O`, the GI50 in the experiment on MDA-N was 2.08 µM (inactive); in the experiment with SR, 1.16 µM (inactive); in the experiment with IGROV-1, 15.5 µM (inactive); in the experiment on NCI-H226, 18.7 µM (inactive); in the experiment with MDA-MB-435, 2.31 µM (inactive); in the experiment on PC-3, 14.5 µM (inactive). Besides, the GI50 in the experiment with OVCAR-4 is 3.54 µM (inactive); in the experiment on HCT-15, 3.3 µM; in the experiment on U-251, 18 µM (inactive); in the experiment with M14 it was 2.47 µM (inactive); with TK-10, 3.09 µM (inactive); in the experiment on CAKI-1 it was 2.56 µM (inactive). Besides, the GI50 was 2.39 µM (inactive) with OVCAR-3; 2.51 µM (inactive) with HOP-92; 3.41 µM (inactive) with 786-0; 20.1 µM (inactive) in the experiment with SF-295; 4.18 µM (inactive) in the experiment with HT-29; 2.25 µM (inactive) in the experiment with Malme-3M. In addition, in the experiment with HCT-116, the GI50 is 1.72 µM (inactive).
`COc1cc(O)ccc1C(=S)SC`: the GI50 was 43.2 µM (inactive) in the experiment with SR; 42.6 µM (inactive) with IGROV-1; 16 µM (inactive) in the experiment on NCI-H226; 68.5 µM (inactive) in the experiment with MDA-MB-435; 47.2 µM (inactive) in the experiment on PC-3; 52 µM (inactive) with OVCAR-4. Moreover, the GI50 is 40.8 µM in the experiment on HCT-15; 54.2 µM (inactive) in the experiment on U-251; > 100 µM (inactive) in the experiment on M14; 60.4 µM (inactive) in the experiment on TK-10; 56.8 µM (inactive) with CAKI-1; > 100 µM (inactive) in the experiment with BT-549. Further, the GI50 in the experiment with OVCAR-3 was 62.4 µM (inactive); with HOP-92 it was 34.2 µM (inactive); in the experiment on 786-0, > 100 µM (inactive); in the experiment on SF-295, 60.3 µM (inactive); with HT-29, > 100 µM (inactive); in the experiment on Malme-3M, 39.2 µM (inactive). For the same compound, the GI50 with HCT-116 was 80.9 µM (inactive).
Regarding `COc1ccccc1/C=C1\NC(=S)N(/C=C2\C(=O)Oc3ccccc3C2=O)C1=O`, the GI50 in the experiment with IGROV-1 is 26.6 µM (inactive); with NCI-H226, 14.6 µM (inactive); in the experiment with MDA-MB-435, 35.2 µM (inactive); with PC-3 it was 44.2 µM (inactive); in the experiment with OVCAR-4 it was 24.9 µM (inactive); in the experiment on HCT-15, 32.2 µM. In addition, the GI50 with U-251 was 23.2 µM (inactive); in the experiment on M14, 64.1 µM (inactive); with TK-10, 33.5 µM (inactive); in the experiment with CAKI-1 it was > 100 µM (inactive); with BT-549, 21.9 µM (inactive); in the experiment with OVCAR-3 it was 32.1 µM (inactive). In addition, the GI50 in the experiment with HOP-92 is 7.76 µM (inactive); with 786-0, 52.5 µM (inactive); in the experiment on SF-295 it was 45.2 µM (inactive); with HT-29 it was 43.5 µM (inactive); in the experiment with HCT-116, 14.2 µM (inactive).
Turning to `COC(=O)[C@@H]1OC(C)(c2ccccc2)O[C@H]1C(=O)OC`, the GI50 in the experiment with MDA-N, with SR, with IGROV-1, in the experiment on NCI-H226, in the experiment with MDA-MB-435 and with PC-3 was > 100 µM (inactive) in each case. Further, the GI50 in the experiment with OVCAR-4 is > 100 µM (inactive); in the experiment on HCT-15 it was greater than 100 µM; in the experiment with U-251, > 100 µM (inactive); in the experiment with M14, > 100 µM (inactive); in the experiment with TK-10, > 100 µM (inactive); with CAKI-1, > 100 µM (inactive). For the same compound, the GI50 with OVCAR-3, with HOP-92, with 786-0, with SF-295, with HT-29 and in the experiment on Malme-3M was > 100 µM (inactive) throughout.
Consider `Oc1c(Cl)c(Cl)c(O)c(-c2cnc(-c3ncc(-c4c(O)c(Cl)c(Cl)c(O)c4Cl)s3)s2)c1Cl`, for which the GI50 in the experiment with SR is 35.6 µM (inactive); with IGROV-1, 16.1 µM (inactive); in the experiment on NCI-H226, 3.96 µM (inactive); in the experiment with MDA-MB-435 it was 21.9 µM (inactive); with PC-3 it was 29.4 µM (inactive); with OVCAR-4, 80.5 µM (inactive). The GI50 with HCT-15 is 13.6 µM; in the experiment with U-251 it was 22.6 µM (inactive); in the experiment with M14 it was 19.5 µM (inactive); in the experiment on TK-10, 26.7 µM (inactive); in the experiment with CAKI-1, 20.9 µM (inactive); with OVCAR-3 it was 21.4 µM (inactive). In addition, the GI50 was 25 µM (inactive) in the experiment on HOP-92; 25.1 µM (inactive) in the experiment with 786-0; 19.9 µM (inactive) in the experiment with SF-295; 35.6 µM (inactive) in the experiment on HT-29; 29.4 µM (inactive) in the experiment with Malme-3M; 21.1 µM (inactive) with HCT-116.
As to `COCc1cc2c(s1)C(=O)C1=C(C2=O)C2(C=C(Br)C(=O)C(Br)=C2)CCN1`, the GI50 with MDA-N is 1.73 µM (inactive); in the experiment on SR it was 1.49 µM (inactive); in the experiment with IGROV-1, 7.24 µM (inactive); in the experiment on NCI-H226, 12.7 µM (inactive); in the experiment with MDA-MB-435, 1.58 µM (inactive); in the experiment with PC-3, 3.15 µM (inactive). In addition, the GI50 in the experiment with OVCAR-4 is 1.65 µM (inactive); in the experiment with HCT-15 it was 3.13 µM; in the experiment on U-251 it was 11.4 µM (inactive); in the experiment on M14, 1.68 µM (inactive); in the experiment on TK-10, 18.2 µM (inactive); in the experiment with CAKI-1 it was 20 µM (inactive). In addition, the GI50 was 0.809 µM (active) in the experiment with OVCAR-3; 4.94 µM (inactive) in the experiment on HOP-92; 4.88 µM (inactive) with 786-0; 6.05 µM (inactive) with SF-295; 3.09 µM (inactive) in the experiment on HT-29; 0.946 µM (active) in the experiment on Malme-3M. For the same compound, the GI50 in the experiment on HCT-116 was 1.41 µM (inactive).
Consider `C/C(=N\NC(=S)NNC(=S)N(C)c1ccccc1)c1ccccn1`, for which the GI50 in the experiment with MDA-N is 4.06 µM (inactive); in the experiment on IGROV-1 it was 0.764 µM (active); with NCI-H226, 1.41 µM (inactive); with MDA-MB-435, 3.52 µM (inactive); with OVCAR-4 it was 1.75 µM (inactive); in the experiment on HCT-15, 1.16 µM. Also, the GI50 was 1.11 µM (active) with U-251; 0.454 µM (active) with M14; 2.86 µM (inactive) in the experiment on TK-10; 0.977 µM (active) with CAKI-1; 3.14 µM (inactive) in the experiment with BT-549; 0.544 µM (active) in the experiment on OVCAR-3. The GI50 in the experiment with HOP-92 was 2.52 µM (inactive); in the experiment on 786-0 it was 1.3 µM (inactive); with SF-295, 2.94 µM (inactive); in the experiment with HT-29, 0.455 µM (active); in the experiment with Malme-3M it was 1.66 µM (inactive); in the experiment on HCT-116, 0.673 µM (active).
For `CC(C)(C)[Si](C)(C)OCC1OC(n2cnc3c(=O)[nH]cnc32)CC1O` (configuration not stated), the GI50 in the experiment on MDA-N, with SR, in the experiment on IGROV-1, in the experiment with NCI-H226, in the experiment on MDA-MB-435 and with PC-3 was > 100 µM (inactive) throughout. Also, the GI50 was > 100 µM (inactive) in the experiment on OVCAR-4; greater than 100 µM with HCT-15; > 100 µM (inactive) with U-251; > 100 µM (inactive) in the experiment on M14; > 100 µM (inactive) with TK-10; > 100 µM (inactive) with CAKI-1. Also, the GI50 in the experiment on OVCAR-3, in the experiment with HOP-92, in the experiment on 786-0, with SF-295, with HT-29 and in the experiment on Malme-3M was > 100 µM (inactive) each time. Also, the GI50 in the experiment with HCT-116 was > 100 µM (inactive).
